In this test the target is T1, androgen receptor (AR) (Rattus norvegicus, UniProt P15207).
T1 construct: Ventral prostates were obtained form rats castrated 24 h prior to sacrifice; from tissue; host or cells: rat ventral prostate cytosol (castrated rats, charcoal-treated)
T1 sequence (P15207 1-902): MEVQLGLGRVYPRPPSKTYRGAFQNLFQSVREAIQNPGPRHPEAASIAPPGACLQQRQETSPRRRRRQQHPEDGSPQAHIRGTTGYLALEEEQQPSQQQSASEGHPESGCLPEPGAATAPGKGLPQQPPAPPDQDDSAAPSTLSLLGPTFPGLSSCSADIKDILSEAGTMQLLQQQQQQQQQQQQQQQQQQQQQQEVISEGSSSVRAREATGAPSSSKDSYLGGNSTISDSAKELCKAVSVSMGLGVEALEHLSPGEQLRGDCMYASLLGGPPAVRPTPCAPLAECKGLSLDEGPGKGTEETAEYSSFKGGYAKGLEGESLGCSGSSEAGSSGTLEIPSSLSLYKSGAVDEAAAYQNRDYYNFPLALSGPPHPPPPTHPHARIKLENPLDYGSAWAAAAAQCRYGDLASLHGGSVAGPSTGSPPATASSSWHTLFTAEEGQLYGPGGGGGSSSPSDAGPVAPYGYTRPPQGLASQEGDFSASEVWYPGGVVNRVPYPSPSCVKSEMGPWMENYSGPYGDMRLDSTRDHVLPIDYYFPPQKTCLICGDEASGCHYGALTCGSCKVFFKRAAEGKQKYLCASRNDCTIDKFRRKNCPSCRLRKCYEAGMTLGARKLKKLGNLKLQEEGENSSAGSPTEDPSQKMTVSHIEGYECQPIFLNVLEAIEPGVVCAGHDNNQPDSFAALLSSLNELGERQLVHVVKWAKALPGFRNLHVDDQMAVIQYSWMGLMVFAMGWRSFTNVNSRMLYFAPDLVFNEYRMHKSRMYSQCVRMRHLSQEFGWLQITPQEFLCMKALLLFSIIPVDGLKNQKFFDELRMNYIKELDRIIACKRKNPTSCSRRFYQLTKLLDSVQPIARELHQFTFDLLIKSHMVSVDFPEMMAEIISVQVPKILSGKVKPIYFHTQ
The test can be described thus: AR binding assay, competition with [3H]-mibolerone binding in rat ventral prostate cytosol. The note with it: 1 nM [3H]-mibolerone, overnight at 0° C.; for inhibition at 0.2 µM: test compound 0.2 μM; for inhibition at 2 µM: test compound 2.0 μM. As to the method: Ventral prostates were obtained form rats castrated 24 h prior to sacrifice. Fresh prostate was minced and washed with Buffer A (Schilling and Liao, Prostate, 5:581-588, 1984). The minces were then homogenized in 3× volume of Buffer A containing protease inhibitors (Complete, Mini, EDTA-free Roche). The homogenate was centrifuged at 30000 g for 30 min. The resultant supernatants were treated with 1×volume of dextran-coated charcoal solution (12.5 g activated charcoal, 12.5 g dextran per liter of buffer A) to remove endogenous steroids. The samples were incubated for 5 min and centrifuged at 16000 g for 10 min. Aliquots of the charcoal-treated cytosol were taken for androgen receptor assays. All procedures were carried out at 0-4° C.
Cytosol androgen receptor concentration was determined as described (Isomaa et al., Endocrinology, 111: 833-843, 1982) with minor modifications. Cytosol preparations were prepared as described above, and bound and free steroids were separated by treatment with an equal volume of dextran-charcoal suspension for 5 min at 4° C. followed by centrifugation at 16000 g for 10 min. Bound radioactivity was determined by counting supernatant fractions in 1 ml of OptiPhase HiSafe3 or OptiPhase Supermix (PerkinElmer).
Cytosol preparations were labelled with 1 nM [^3H]-mibolerone overnight at 0° C. (total). To determine AR binding activity of the compounds of the present invention (test compounds), the ability of test compounds to compete with [^3H]7α,17α-dimethyl-17β-hydroxy-4-estren-3-one ([^3H]-mibolerone) binding was studied. 1 nM [^3H]-mibolerone and test compounds in two concentrations (0.2 and 2 uM) were incubated overnight at 0° C. To determine non-specific binding, parallel incubations were carried out using 1 nM concentration [^3H]-mibolerone with 500-fold molar excess of unlabelled testosterone. Two to four replicates were used for each sample. After incubation, bound and free steroids were separated as described above and bound radioactivity was determined. The ability of the test compounds to bind AR is reported as reduction in bound radioactivity obtained with 1 nM [^3H]-mibolerone. The results (% inhibition) were calculated as: % inhibition=100−(100×(averagetest compound/averagetotal)).

As to `CC(=O)Nc1ccc(OCC(C)(O)C(=O)Nc2ccc([N+](=O)[O-])c(C)c2)cc1` (centres unmarked) [Example 1, 3-(4-Acetylaminophenoxy)-2-hydroxy-2-methyl-N-(3-methyl-4-nitrophenyl)propionamide], the inhibition at 0.2 µM came out at 91% and the inhibition at 2 µM turned out to be 101%.

As for `CC(=O)Nc1ccc(OCC(C)(O)C(=O)Nc2ccc([N+](=O)[O-])c(C)c2)cc1F` (centres unmarked) [Example 2, 3-(4-Acetylamino-3-fluorophenoxy)-2-hydroxy-2-methyl-N-(3-methyl-4-nitrophenyl)propionamide], the inhibition at 0.2 µM was 93% and the inhibition at 2 µM is 100%.

Turning to `CC(=O)Nc1ccc(OC[C@](C)(O)C(=O)Nc2ccc([N+](=O)[O-])c(C)c2)cc1F` [Example 4, (2S)-3-(4-Acetylamino-3-fluorophenoxy)-2-hydroxy-2-methyl-N-(3-methyl-4-nitrophenyl)propionamide], the inhibition at 0.2 µM was 90% and the inhibition at 2 µM is 88%.

With `Cc1cc(NC(=O)C(C)(O)COc2ccc(C(N)=O)cc2)ccc1[N+](=O)[O-]` (centres unmarked) [Example 5, 4-[2-Hydroxy-2-(3-methyl-4-nitrophenylcarbamoyl)propoxy]benzamide], the inhibition at 0.2 µM worked out at 25% and the inhibition at 2 µM was 74%.

On to `Cc1cc(NC(=O)C(C)(O)COc2ccc(Cl)c(Cl)c2)ccc1[N+](=O)[O-]` (centres unmarked) [Example 6, 3-(3,4-Dichlorophenoxy)-2-hydroxy-2-methyl-N-(3-methyl-4-nitrophenyl)propionamide], for which the inhibition at 0.2 µM turned out to be 68% and the inhibition at 2 µM was 95%.

In the case of `CCOC(=O)c1ccc(OCC(C)(O)C(=O)Nc2ccc([N+](=O)[O-])c(C)c2)cc1` (centres unmarked) [Example 7, 4-[2-Hydroxy-2-(3-methyl-4-nitrophenylcarbamoyl)propoxy]benzoic acid ethyl ester], the inhibition at 0.2 µM was determined as 74% and the inhibition at 2 µM is 98%.

Consider `Cc1cc(NC(=O)C(C)(O)COc2ccc(F)c(Cl)c2)ccc1[N+](=O)[O-]` (centres unmarked) [Example 8, 3-(3-Chloro-4-fluorophenoxy)-2-hydroxy-2-methyl-N-(3-methyl-4-nitrophenyl)propionamide], for which the inhibition at 0.2 µM came to 93% and the inhibition at 2 µM came to 109%.

On to `Cc1cc(NC(=O)C(C)(O)COc2ccc(OC(F)(F)F)cc2)ccc1[N+](=O)[O-]` (centres unmarked) [Example 9, 2-Hydroxy-2-methyl-N-(3-methyl-4-nitrophenyl)-3-(4-trifluoromethoxyphenoxy)propionamide], for which the inhibition at 0.2 µM is 41% and the inhibition at 2 µM worked out at 102%.

Regarding `Cc1cc(NC(=O)C(C)(O)COc2cccc(Cl)c2Cl)ccc1[N+](=O)[O-]` (centres unmarked) [Example 10, 3-(2,3-Dichlorophenoxy)-2-hydroxy-2-methyl-N-(3-methyl-4-nitrophenyl)propionamide], the inhibition at 0.2 µM was found to be 5% and the inhibition at 2 µM was found to be 83%.

With `Cc1cc(NC(=O)C(C)(O)COc2ccc(F)cc2)ccc1[N+](=O)[O-]` (centres unmarked) [Example 11, 3-(4-Fluorophenoxy)-2-hydroxy-2-methyl-N-(3-methyl-4-nitrophenyl)propionamide], the inhibition at 0.2 µM is 98% and the inhibition at 2 µM was 105%.

As to `Cc1ccc(OCC(C)(O)C(=O)Nc2ccc([N+](=O)[O-])c(C)c2)cc1` (centres unmarked) [Example 12, 2-Hydroxy-2-methyl-N-(3-methyl-4-nitrophenyl)-3-p-tolyloxypropionamide], the inhibition at 0.2 µM came to 77% and the inhibition at 2 µM was 101%.

As to `Cc1cc(NC(=O)C(C)(O)COc2ccc(NC(=O)C(F)(F)F)cc2)ccc1[N+](=O)[O-]` (centres unmarked) [Example 13, 2-Hydroxy-2-methyl-N-(3-methyl-4-nitrophenyl)-3-[4-(2,2,2-trifluoroacetylamino)phenoxy]propionamide], the inhibition at 0.2 µM came out at 77% and the inhibition at 2 µM came out at 90%.

As for `Cc1cc(NC(=O)C(C)(O)COc2ccccc2)ccc1[N+](=O)[O-]` (centres unmarked) [Example 14, 2-Hydroxy-2-methyl-N-(3-methyl-4-nitrophenyl)-3-phenoxypropionamide], the inhibition at 0.2 µM was found to be 75% and the inhibition at 2 µM was 95%.
